Measurements from patent publication US20240350402A1, “TOPICAL DRUG TREATMENT TO PREVENT OR REDUCE CORNEAL SCARRING” (The Cleveland Clinic Foundation, priority 2021, published 2024).

Test system: rabbit corneas after alkali burn injury
Assay: Alkali burn model: slit lamp opacity area and intensity (ImageJ)
Assay type: in vivo
Conditions: alkali burn 1N NaOH; topical six times per day, one month; 0.8 mg/ml losartan, 1% prednisolone acetate
Method: All animal treatments and care were approved by the Institutional Animal Care and Use Committee (IACUC) at the Cleveland Clinic Foundation (Cleveland, OH, USA) and the Animal Care and Use Review Office of the Department of the Army (Fort Detrick, MD). All rabbits were treated in accordance with the tenets of the ARVO Statement for the Use of Animals in Ophthalmic and Vision Research. Sixteen 10- to 15-week-old female New Zealand White rabbits weighing 2.5 to 3.0 kg each were included in this example. […]
At one month after sodium hydroxide exposure and treatments, with the rabbits under ketamine-xylazine general anesthesia, the eyes were dilated with two drops of 1% tropicamide (Akom Co., Lake Forest, IL) for thirty minutes. […] For each study eye, the total area of opacity was determined by outlining the opacity with the freehand selection tool using ImageJ 1.53a analysis software calibrated to mm^2. The “raw internal density” in pixels for the opacified area in each cornea was also determined using ImageJ. […]

## CCCCc1nc(Cl)c(CO)n1Cc1ccc(-c2ccccc2-c2nn[nH]n2)cc1 [losartan]
  total opacity intensity in pixels (ImageJ) vs BSS vehicle group: significantly different
